Test results: EP0394314B2, “MULTIPLE STEP ENTRAPMENT/LOADING PROCEDURE FOR PREPARING […]-[…]” (VESTAR, INC., priority 1987, dated 1989)
Counter-ions that a name gives are not always drawn.

Legend:
[1] = Maximum tolerated dose of a single intravenous dose; settings: mouse, in vivo, CD2F1 mice, vesicles normalized to the hydrochloride, read-out: maximum tolerated dose (MTD, non-lethal)
Description: This compares to an MTD of about 40 mg/kg (normalized to the hydrochloride) for doxorubicin vesicles prepared as described in Example III. In contrast, the MTD for doxorubicin vesicles, when prepared as described in Example III with the exception that citric acid was substituted for lactobionic acid, was only about 10 mg/kg, less than the MTD for the free drug.

[2] = test system: White blood cell (w.b.c.) counts; assay: White blood cell counts after doxorubicin treatment; type: in vivo, CD2F1 mice; settings: doxorubicin dose 40 mg/kg (for the equivalent hydrochloride); four days post therapy
Description: White blood cell (w.b.c.) counts were performed on CD2F1 mice receiving doxorubicin doses of 40 mg/kg (for the equivalent hydrochloride). Mice receiving free drug experienced severe depression in w.b.c. counts: at four days post therapy, counts were only 8.5% of pretherapy values. In contrast, mice treated with doxorubicin vesicles prepared in accordance with this invention (Example III) at the same doxorubicin dosage experienced only moderate suppression in w.b.c. counts: at four days post therapy, counts were 75% of pretherapy values.

[3] = Toxicity of doxorubicin vesicles versus free drug, intravenous tests in mice; type: in vivo; settings: 20 mg/kg or equivalent dose
Excerpt: In nearly all instances of vesicle-entrapped doxorubicin reported in the literature, the loaded vesicles are less toxic than the free drug.
Doxorubicin vesicles can also be prepared with citric acid.

With COc1cccc2c1C(=O)c1c(O)c3c(c(O)c1C2=O)C[C@@](O)(C(=O)CO)C[C@@H]3O[C@H]1C[C@H](N)[C@H](O)[C@H](C)O1 [doxorubicin hydrochloride] the MTD [1] was ~25 mg/kg, the “w.b.c. counts, % of pretherapy values” [2] was 8.5% and the tolerance of dose [3] was “tolerated”.
